Molecules are shown by their SMILES.

The test system of this assay is HeLa. Kind of assay: Photocytotoxicity against human HeLa cells assessed as survival-fraction per unit uptake measured as concentration in incubation medium necessary to produce cell uptake of 0.3 nmol per mg of protein at which survival fraction was determined after 24 hrs in presence of 10 J/cm2 light. It counts as functional.
In the case of `CC1(C)Cc2cc3[nH]c(cc4nc(cc5[nH]c(cc1n2)cc5C(=O)O)CC4(C)C)cc3C(=O)O`, the survival fraction was found to be 0.35.
Take `CC1(C)Cc2cc3[nH]c(cc4nc(cc5[nH]c(cc1n2)cc5C(=O)NCCN)CC4(C)C)cc3C(=O)NCCN`: the survival fraction is 0.88.
With `CC1(C)Cc2cc3[nH]c(cc4nc(cc5[nH]c(cc1n2)cc5CN(CCO)CCO)CC4(C)C)cc3CN(CCO)CCO` the figure was 0.04; with `COCCOCCOCCOCCNCc1cc(CNCCOCCOCCOCCOC)cc(-c2c3nc(cc4[nH]c(cc4-c4ccc(C)cc4)c(OC)c4nc(cc5[nH]c2cc5-c2ccc(C)cc2)C(C)(C)C4)C(C)(C)C3)c1`, 0.1; with `CC1(C)Cc2cc3[nH]c(cc4nc(cc5[nH]c(cc1n2)cc5-c1cc(OCCO)cc(OCCO)c1)CC4(C)C)cc3-c1cc(OCCO)cc(OCCO)c1`, 0.001.
As for `CC1(C)Cc2cc3[nH]c(cc4nc(cc5[nH]c(cc1n2)cc5-c1cc(O)cc(O)c1)CC4(C)C)cc3-c1cc(O)cc(O)c1`, the survival fraction was 0.01.
For `CC1(C)Cc2cc3[nH]c(cc4nc(cc5[nH]c(cc1n2)cc5C#CC[N+](C)(C)C)CC4(C)C)cc3C#CC[N+](C)(C)C.[Cl-].[Cl-]`, the survival fraction was determined as 0.6.
`CC1(C)Cc2cc3[nH]c(cc4nc(cc5[nH]c(cc1n2)cc5C(=O)N(CCN)CCN)CC4(C)C)cc3C(=O)N(CCN)CCN`: the survival fraction was found to be 0.9.
With `CC1(C)Cc2cc3[nH]c(cc4nc(cc5[nH]c(cc1n2)cc5C(=O)N1CC[N+](C)(C)CC1)CC4(C)C)cc3C(=O)N1CC[N+](C)(C)CC1.[Cl-].[Cl-]` the figure was 1; with `CC1(C)Cc2cc3[nH]c(cc4nc(cc5[nH]c(cc1n2)cc5C(=O)/C=C/c1cc(O)cc(O)c1)CC4(C)C)cc3C(=O)/C=C/c1cc(O)cc(O)c1`, 0.23; with `COCCN(CCOC)C(=O)c1cc2cc3nc(cc4[nH]c(cc5nc(cc1[nH]2)CC5(C)C)cc4C(=O)N(CCOC)CCOC)CC3(C)C`, 0.02.

For the origin of these results see ChEMBL document CHEMBL1157821, “In vitro photodynamic therapy and quantitative structure-activity relationship studies with stable synthetic near-infrared-absorbing bacteriochlorin photosensitizers” (J Med Chem, 2010).
